Assay [1] is described as follows: Blood pressure in spontaneously hypertensive [SHR] rats. The assay is classed as in vivo, rat. The conditions noted are these: intraperitoneal (ip) dose of 100 mg/Kg, over 2 hours duration. How it is done: In spontaneously hypertensive [SHR] rats (as described in Laffan, R. J., Patterson, A., Hitch, S. W., Jeunelot, Technique for Prolonged Continuous Recording of Blood Pressures of Unrestricted Rats, Cardiovascular Research, Vol. 6, pp. 319-24, 1972),3,10b-dihydro-2,4-dimethyl-5-oxo-5H[1]benzopyrano[3,4-C]pyridine-1-carboxylic acid ethyl ester (Example 4D) administered intraperitoneal (ip) dose of 100 mg/Kg reduced blood pressure by 17-22% over 2 hours duration.

The subject of assay [2] is Cyclic Nucleotide Phosphodiesterase (cNUC-PDE). As to the kind of experiment: Cyclic Nucleotide Phosphodiesterase (cNUC-PDE) Assay. It is filed as biochemical. The following applies: compounds initially tested at 100 μM; enzyme source (dog heart or rat mast cell) not given. Here is the method: Cyclic Nucleotide Phosphodiesterase (cNUC-PDE) Assay: CNUC-PDE was measured by a modification of the one-step procedure described by Thompson et al. (1979). The reaction was carried out in 7 ml scintillation vials. The reaction mixture consisted of 5 mM MgCl2., 50 mM tris-(hydroxymethyl)aminomethane buffered to pH 8.0 at 37° C. with hydrochloric acid (Tris-chloride), 1-2×10^5 cpm ^3 H-labeled cyclic nucleotide substrate, appropriate concentration of non-labeled cyclic nucleotide, 25 μg/ml lyophilized Ophiophagus hannah venom and appropriate enzyme for linear reaction conditions. The timed reactions were initiated by the addition of an enzyme, incubated at 37° C. for appropriate times for linear reaction rates, and stopped with the addition of 0.8 ml of 50% (v/v) AG 1×8 (200-400 mesh) ion-exchange resin in 50% (v/v) ethanol-Tris-acetate buffer (pH 8.0). The vials were vortexed and the resin mixture allowed to equilibrate for 15 min at 4° C. Scintillation fluid (4.5 ml) was added and radioactivity quantitated in a liquid scintillation counter.
Dog Heart Enzyme Preparations: Mongrel dogs were overdosed with Nembutal® and their hearts surgically removed. […]
Mast Cell Enzyme Preparations: Peritoneal cells were collected and mast cells purified by a procedure similar to that described by Yurt et al., (1977). […] The cells ([…]) were counted with a haemocytometer. […]

For another assay, the system named is guinea pig lung. As to the kind of experiment: guinea pig lung inhibition. Here is the method:
The activity of a compound is expressed as % inhibition of net antigen-induced histamine release. In the case of an active compound the concentration of the compound required for 50% inhibition for AIR (I50) is determined.

On to `CCOC(=O)C1=C(C)NC(C)=C2C(=O)Oc3ccccc3C12` (stereo not drawn) [Example 4D, 3,10b-Dihydro-2,4-dimethyl-5-oxo-5H[1]benzo-pyrano[3,4-c]pyridine-1-carboxylic acid ethyl ester], for which, in assay [1], the reduced blood pressure is 17-22%.

Take `CCOC(=O)C1=C(C)NC(C)=C2C(=O)Nc3ccccc3C21` (stereo not drawn) [Example 3C, 3,5,6,10b-Tetrahydro-2,4-dimethyl-5-oxo-benzo[c][2,7]naphthyridine-1-carboxylic acid ethyl ester]: the PDE inhibition in assay [2] is on record as under 60%. Besides, the “guinea pig lung inhibition” value in the assay on guinea pig lung is under 50%.

The record behind these values is patent US4478834A, “Dihydropyridines and their use in the treatment of asthma” (USV Pharmaceutical Corporation, priority 1983, dated 1984).
